Tests used:
[1] = biological target: human adenosine A2a receptor (Homo sapiens, UniProt P29274); experiment: Adenosine A2a receptor whole cell cyclic AMP assay; conditions: for IC50: HEK293 cells stably expressing human A2a, 1 hour compound treatment
[2] = biological target: T1, human adenosine A2b receptor (Homo sapiens, UniProt P29275); experiment: Adenosine A2b receptor whole cell cyclic AMP assay
T1 sequence (P29275 1-332): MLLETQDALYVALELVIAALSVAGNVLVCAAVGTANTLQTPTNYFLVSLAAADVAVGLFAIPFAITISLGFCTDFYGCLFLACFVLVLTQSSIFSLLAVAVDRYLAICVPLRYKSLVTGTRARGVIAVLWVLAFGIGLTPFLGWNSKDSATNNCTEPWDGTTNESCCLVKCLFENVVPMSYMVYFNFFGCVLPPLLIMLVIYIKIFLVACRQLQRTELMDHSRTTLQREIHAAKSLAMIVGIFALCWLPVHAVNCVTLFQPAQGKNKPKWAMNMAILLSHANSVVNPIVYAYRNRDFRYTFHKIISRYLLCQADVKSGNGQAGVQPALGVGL

[3] = A2a @ 1 μM Adenosine (A2a cAMP IC50), 1 μM adenosine

Chain of human adenosine A2a receptor (P29274 whole entry): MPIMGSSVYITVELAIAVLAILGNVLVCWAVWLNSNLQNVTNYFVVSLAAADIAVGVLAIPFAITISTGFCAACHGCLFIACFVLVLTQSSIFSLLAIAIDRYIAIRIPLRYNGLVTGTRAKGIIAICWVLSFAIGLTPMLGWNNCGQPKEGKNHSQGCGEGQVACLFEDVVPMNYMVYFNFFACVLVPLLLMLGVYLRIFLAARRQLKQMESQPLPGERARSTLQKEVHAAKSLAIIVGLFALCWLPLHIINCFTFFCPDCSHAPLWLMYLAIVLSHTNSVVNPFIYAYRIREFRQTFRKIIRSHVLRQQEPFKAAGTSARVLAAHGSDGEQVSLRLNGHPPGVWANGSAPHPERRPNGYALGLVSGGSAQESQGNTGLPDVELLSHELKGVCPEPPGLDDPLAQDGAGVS

Row | IC50 [1, 3] | IC50 ([1]; A2a @ 100 μM Adenosine (A2a cAMP IC50), 100 μM adenosine) | IC50 [2] | inhibition at 10 µM ([1]; HEK293, 1 h, read-out: A2a @ 100 μM Adenosine (A2a cAMP IC50)) | inhibition at 10 µM ([2]; HEK293, 1 h, read-out: A2b @ 10 μM Adenosine (A2b cAMP IC50)) | Compound
1 | < 0.1 µM | 0.1 to 1 µM | 0.1 to 1 µM |  |  | Cn1cnc2ccc(-c3c(-c4ccc(F)cc4)nc(N)c4nnnn34)cc21 [1-13, 6-(4-fluorophenyl)-5-(1-methyl-1H-benzo[d]imidazol-6-yl)tetrazolo[1,5-a]pyrazin-8-amine]
2 | < 0.1 µM |  |  | < 25% | < 25% | Cc1ccnc2ccc(-c3c(-c4ccc(F)cc4F)nc(N)c4nnnn34)cc12 [1-43, 6-(2,4-difluorophenyl)-5-(4-methylquinolin-6-yl)tetrazolo[1,5-a]pyrazin-8-amine]
3 | < 0.1 µM |  | 0.1 to 1 µM |  |  | Cc1ccnc2ccc(-c3c(-c4ccc(F)cc4)nc(N)n4nnnc34)cc12 [1-36, 7-(4-fluorophenyl)-8-(4-methylquinolin-6-yl)tetrazolo[1,5-c]pyrimidin-5-amine]

Reference: US12065444B2, “Substituted tetrazolo[1,5-a]pyrazines and tetrazolo[1,5-c]pyrimidines as adenosine receptor antagonists” (Crossignal Therapeutics, Inc., priority 2021, dated 2024)
